Reference: patent publication US10144742B2 (Millennium Pharmaceuticals, Inc., priority 2014, dated 2018)
Read-outs that look alike come from different tables or passages of the source.

Columns and labels:
hNAMPT protein = hNAMPT protein (Homo sapiens (Human), UniProt P43490); experiment: NAMPT enzyme assay (TR-FRET/HTRF, BodiPY ligand, anti 6His-Tb); format: binding; conditions: for IC50: read-out: IC50; for inhibition at 1 µM: read-out: Percent Inhibition
Excerpt: As discussed above, the invention provides compounds that are useful as inhibitors of the enzyme NAMPT. The NAMPT inhibition of a compound of the invention can be measured using a variety of methods known in the art. For example, the ability of a compound of the invention to inhibit NAMPT enzyme activity can be measured using a homogeneous time resolved fluorescence (HTRF) assay using hNAMPT protein and anti 6His-Tb in buffer treated with a compound of the invention (or control e.g., DMSO) and BodiPY ligand. The TR-FRET signal can be measured using a high throughput microplate reader (e.g., Pherastar). Excitation can be carried out at 320 nm. The percent inhibition value at a single concentration of compound of the invention can be calculated relative to a control treated sample. A concentration response curve can be generated for each compound of the invention and the curve fitted to generate an IC50 value. […] Cat. No. […] To this solution is added test compounds or vehicle control (DMSO) and BodiPY ligand (structure below). The plate is shaken for 1-2 min, sealed and incubated for 1 hour at rt in the dark. The TR-FRET signal is measured using BMG Pherastar (Lanthascreen protocol on BMG Pherastar). Excitation was carried out at 320 nm, and the ratio of emission of BodiPY (520 nm) to terbium (486 nm) was determined. Concentration response curves are generated by calculating the excitation increase in test compound-treated samples relative to DMSO-treated controls. For the assay method described above, test compound percent inhibition values at a single concentration are calculated relative to control (DMSO) treated samples. Compound concentration response curves are fitted to generate IC50 values from those curves. One skilled in the art will appreciate that these values generated either as percentage inhibition at a single concentration or IC50 values are subject to experimental variation.

PC3 cells = experiment: PC3 growth inhibition (Cell-titer glo, 72 hours); format: cell-based; conditions: Homo sapiens, PC-3, PC3 cells, 72 hours, Cell-titer glo, read-out: Percent Inhibition (PC3 growth inhibition); for inhibition at 1 µM: compound concentration 1 μM; for inhibition at 1.667 µM: compound concentration 1.667 μM
Description: The ability of a compound of the invention to inhibit the growth of cells can be measured using a variety of methods known in the art. For example, the ability of a compound of the invention to inhibit the growth of PC3 cells can be measured. PC3 cells can be plated and incubated overnight under CO2. For each measurement, a compound of the invention (or vehicle e.g., DMSO) can be diluted with AIM serum free medium and added to the cell plate. The cell plate can then be incubated for 72 h under CO2. Cell-titer glo solution can be added and the plates can be incubated protected from light and the amount of luminescences can be measured. Concentration response curves can be generated by calculating the luminescence increase in test compound treated samples relative to DMSO-treated controls. Percentage remaining viability values at a single concentration can be measured. Growth inhibition (GI50) or cell viability (LD50) values can be determined from those curves.
Compounds of the invention were assayed to measure PC3 growth inhibition at a concentration of 1 μM or 1.667 μM (Table 3). To measure PC3 growth inhibition, PC3 cells that were maintained in PRMI1640 growth medium (Life Technologies; Cat. No. 11875) at 37° C. under 5% CO2 are trypsinized and diluted at a density of 8×10^4 cells/ml, 25 ul per well of cells and plated in 384-well black tissue culture plate. The cells are incubated overnight at 37° C. under 5% CO2. For each measurement, a test compounds or vehicle control (DMSO) are diluted with AIM serum free medium and added to the cell plate. Incubate for 72 hours at 37° C. under 5% CO2. 25 μl Cell-titer glo solution (Promega; Cat. No. G8462) is added and the cell plates are incubated for 10 minutes protected from light. The luminescence is measured. Concentration response curves are generated by calculating the luminescence increase in test compound-treated samples relative to DMSO-treated controls. Percentage remaining viability values at a single concentration, growth inhibition (GI50) or cell viability (LD50) values are determined from those curves. One skilled in the art will appreciate that these values are subject to experimental variation.

[1] = NAMPT inhibition at compound concentration 1 μM
[2] = NAMPT inhibition, IC50 range class

Chain of hNAMPT protein (P43490 whole entry): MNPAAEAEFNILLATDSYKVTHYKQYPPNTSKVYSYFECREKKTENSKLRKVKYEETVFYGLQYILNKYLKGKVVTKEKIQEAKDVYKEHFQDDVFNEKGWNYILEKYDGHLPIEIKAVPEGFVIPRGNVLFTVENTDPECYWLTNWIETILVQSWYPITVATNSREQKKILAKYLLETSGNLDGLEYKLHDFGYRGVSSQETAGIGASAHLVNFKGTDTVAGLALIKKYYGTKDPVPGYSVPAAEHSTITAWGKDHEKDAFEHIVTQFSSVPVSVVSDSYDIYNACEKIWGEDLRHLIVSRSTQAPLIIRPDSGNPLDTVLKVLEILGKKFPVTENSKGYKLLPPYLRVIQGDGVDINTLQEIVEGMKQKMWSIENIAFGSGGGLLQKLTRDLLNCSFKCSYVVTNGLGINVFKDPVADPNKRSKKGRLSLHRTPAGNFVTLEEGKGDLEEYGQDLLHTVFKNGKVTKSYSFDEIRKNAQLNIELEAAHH

| Structure (SMILES) | IC50 (hNAMPT protein; NAMPT IC50 range class) | inhibition at 1 µM (hNAMPT protein) | inhibition at 1 µM (PC3 cells) | inhibition at 1 µM (hNAMPT protein; compound concentration 1 μM) | inhibition at 1.667 µM (PC3 cells) | inhibition at 1 µM (hNAMPT protein; [1]) | IC50 (hNAMPT protein; [2]) | inhibition at 1.852 µM (PC3 cells; compound concentration 1.852 μM) |
| --- | --- | --- | --- | --- | --- | --- | --- | --- |
| O=C(NCCCn1ccnc1)c1ccc2nc(N3CCC(C4CCNCC4)CC3)c(-c3ccccc3)nc2c1 [Compound I-271, 2-(4,4′-Bipiperidin-1-yl)-N-[3-(1H-imidazol-1-yl)propyl]-3-phenylquinoxaline-6-carboxamide] | < 100 nM | 102% | -2% |  |  |  |  |  |
| COc1ccc(-c2nc3cc(C(=O)NCCCn4ccnc4)ccc3nc2-c2ccccc2)cc1 [Compound I-241, N-[3-(1H-imidazol-1-yl)propyl]-3-(4-methoxyphenyl)-2-phenylquinoxaline-6-carboxamide] | 500 to 1000 nM |  | 1% | 57% |  |  |  |  |
| CC(C)(C)OCc1nc2ccc(C(=O)NCCCc3ncc[nH]3)cc2nc1-c1ccc(F)cc1 [Compound I-341, N-(3-(1H-imidazol-2-yl)propyl)-2-(tert-butoxymethyl)-3-(4-fluorophenyl)quinoxaline-6-carboxamide] | 100 to 500 nM |  |  | 73% | 1% |  |  |  |
| COc1cc(-c2nc3cc(C(=O)NCCCc4nccn4C)ccc3nc2-c2ccc(F)cc2)c(F)cn1 [Compound I-519, 3-(5-fluoro-2-methoxypyridin-4-yl)-2-(4-fluorophenyl)-N-[3-(1-methyl-1H-imidazol-2-yl)propyl]quinoxaline-6-carboxamide] |  |  |  |  | 99% | 97% | < 100 nM |  |
| O=C(NCCCn1ccnc1)c1ccc2nc(-c3ccccc3)c(-c3ccsc3)nc2c1 [Compound I-174, N-[3-(1H-imidazol-1-yl)propyl]-2-phenyl-3-(3-thienyl)quinoxaline-6-carboxamide] | 100 to 500 nM |  | 1% | 89% |  |  |  |  |
| O=C(c1ccc2nc(-c3ccc(F)cc3)c(-c3ccc(F)cc3)nc2c1)N1CCC(c2ccccn2)C1 (stereo not drawn) [Compound I-163, [2,3-bis(4-fluorophenyl)quinoxalin-6-yl][3-(pyridin-2-yl)pyrrolidin-1-yl]methanone] | 2000 to 10000 nM |  | 86% | 17% |  |  |  |  |
| O=C(NCCCn1ccnc1)c1ccc2nc(-c3ccccc3)c(N3CCC4(COC4)C3)nc2c1 [Compound I-15, N-[3-(1H-imidazol-1-yl)propyl]-3-(2-oxa-6-azaspiro[3.4]oct-6-yl)-2-phenylquinoxaline-6-carboxamide] | 2000 to 10000 nM |  | -6% | 15% |  |  |  |  |
| CO[C@H]1C[C@H](Oc2nc3ccc(C(=O)NCCCc4ncc[nH]4)cc3nc2-c2ccc(F)cc2)C1 [Compound I-338, 3-(4-fluorophenyl)-N-[3-(1H-imidazol-2-yl)propyl]-2-[(trans-3-methoxycyclobutyl)oxy]quinoxaline-6-carboxamide] | < 100 nM |  |  | > 99% | 1% |  |  |  |
| O=C(NCCCc1ncc[nH]1)c1ccc2nc(N3CCCCC3)c(-c3ccc(Cl)cc3)nc2c1 [Compound I-198, 3-(4-chlorophenyl)-N-[3-(1H-imidazol-2-yl)propyl]-2-(piperidin-1-yl)quinoxaline-6-carboxamide] | < 100 nM |  |  | > 99% | 3% |  |  |  |
| O=C(NCCCc1ncc[nH]1)c1ccc2nc(N3CCSCC3)c(-c3ccc(F)cc3)nc2c1 [Compound I-256, 3-(4-fluorophenyl)-N-[3-(1H-imidazol-2-yl)propyl]-2-(thiomorpholin-4-yl)quinoxaline-6-carboxamide] | < 100 nM |  |  | 97% | 2% |  |  |  |
| CN1CCCC(COc2nc3ccc(C(=O)NCCCc4ncc[nH]4)cc3nc2-c2ccc(F)cc2)C1 (stereo not drawn) [Compound I-510, 3-(4-fluorophenyl)-N-[3-(1H-imidazol-2-yl)propyl]-2-[(1-methylpiperidin-3-yl)methoxy]quinoxaline-6-carboxamide] |  |  |  |  | 2% | 98% | < 100 nM |  |
| Cc1ccc(-c2nc3cc(C(=O)NCCCc4ncc[nH]4)ccc3nc2-c2ccc(F)cc2)s1 [Compound I-473, 2-(4-fluorophenyl)-N-[3-(1H-imidazol-2-yl)propyl]-3-(5-methyl-2-thienyl)quinoxaline-6-carboxamide] |  |  |  |  | 3% | 85% | 100 to 500 nM |  |
| O=C(NCCCc1ncc[nH]1)c1ccc2nc(-c3ccc(F)cc3)c(-c3cc(F)ccc3F)nc2c1 [Compound I-319, 3-(2,5-difluorophenyl)-2-(4-fluorophenyl)-N-[3-(1H-imidazol-2-yl)propyl]quinoxaline-6-carboxamide] | < 100 nM |  |  | 94% | 3% |  |  |  |
| O=C(NCCCc1ncc[nH]1)c1ccc2nc(-c3ccc(F)cc3)c(-c3cc(C(F)(F)F)ccc3F)nc2c1 [Compound I-451, 2-(4-fluorophenyl)-3-[2-fluoro-5-(trifluoromethyl)phenyl]-N-[3-(1H-imidazol-2-yl)propyl]quinoxaline-6-carboxamide] |  |  |  |  | 2% | 97% | < 100 nM |  |
| O=C(NCCCc1ncc[nH]1)c1ccc2nc(N3CCCCC3)c(-c3cccs3)nc2c1 [Compound I-195, N-[3-(1H-imidazol-2-yl)propyl]-2-(piperidin-1-yl)-3-(2-thienyl)quinoxaline-6-carboxamide] | < 100 nM |  |  | > 99% | 2% |  |  |  |
| O=C(NCCCc1nnc[nH]1)c1ccc2nc(-c3ccc(F)cc3)c(-c3ccc(F)cc3)nc2c1 [Compound I-387, 2,3-bis(4-fluorophenyl)-N-[3-(4H-1,2,4-triazol-3-yl)propyl]quinoxaline-6-carboxamide] | 500 to 1000 nM |  |  | 61% | 5% |  |  |  |
| O=C(NCCCn1ccnc1)c1ccc2nc(N3CCC(O)C3)c(-c3ccccc3)nc2c1 (stereo not drawn) [Compound I-90, 2-(3-hydroxypyrrolidin-1-yl)-N-[3-(1H-imidazol-1-yl)propyl]-3-phenylquinoxaline-6-carboxamide] | 500 to 1000 nM |  | -7% | 54% |  |  |  |  |
| O=C(NCCCc1ncc[nH]1)c1ccc2nc(-c3ccc(F)cc3)c(-c3cc4ccccc4s3)nc2c1 [Compound I-412, 3-(1-benzothiophen-2-yl)-2-(4-fluorophenyl)-N-[3-(1H-imidazol-2-yl)propyl]quinoxaline-6-carboxamide] |  |  |  |  | 6% | 96% | 100 to 500 nM |  |
| COc1cccc(-c2nc3cc(C(=O)NCCCc4cccnc4)ccc3nc2N2CCC(O)CC2)c1 [Compound I-46, 2-(4-hydroxypiperidin-1-yl)-3-(3-methoxyphenyl)-N-[3-(pyridin-3-yl)propyl]quinoxaline-6-carboxamide] | < 100 nM |  |  | 98% |  |  |  | 2% |
| NCc1cccc(-c2nc3cc(C(=O)NCCCn4ccnc4)ccc3nc2-c2ccccc2)c1 [Compound I-120, 3-[3-(Aminomethyl)phenyl]-N-[3-(1H-imidazol-1-yl)propyl]-2-phenylquinoxaline-6-carboxamide] | 2000 to 10000 nM | 47% | 1% |  |  |  |  |  |
